# Columns and labels:
# [1] = biological target: T1, RARβ (Homo sapiens, UniProt P10826); assay: RAR binding, competition with tritiated retinoid; details: read-out: RAR Binding beta
# T1 sequence (P10826 1-455): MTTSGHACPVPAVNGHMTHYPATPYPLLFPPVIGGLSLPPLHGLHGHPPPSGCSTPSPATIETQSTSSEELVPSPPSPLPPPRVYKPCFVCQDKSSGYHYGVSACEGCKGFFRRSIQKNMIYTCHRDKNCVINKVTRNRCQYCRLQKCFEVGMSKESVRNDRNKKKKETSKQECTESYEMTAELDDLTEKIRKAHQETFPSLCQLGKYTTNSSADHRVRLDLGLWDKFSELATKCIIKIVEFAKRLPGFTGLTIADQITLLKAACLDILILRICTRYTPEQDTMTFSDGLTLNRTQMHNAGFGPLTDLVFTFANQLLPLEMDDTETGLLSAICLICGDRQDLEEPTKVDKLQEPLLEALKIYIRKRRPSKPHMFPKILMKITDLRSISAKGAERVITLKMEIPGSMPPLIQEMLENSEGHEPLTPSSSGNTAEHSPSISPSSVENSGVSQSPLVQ
# Source text: In addition to the cotransfection data, the binding of selected compounds of the present invention to the RAR and RXR receptors was also investigated according to the methodology described in M. F., Boehm, et al., “Synthesis and Structure-Activity Relation-ships of Novel Retinoid X Receptor Selective Retinoids”, 37 J. Med. Chem., 2930 (1994); M. F. Boehm, et al., “Synthesis of High Specific Activity [^3H]-9-cis Retinoic Acid and Its Application for Identifying Retinoids with Unusual Binding Properties”, 37 J. Med. Chem., 408 (1994), and E. A. Allegretto, et al., “Characterization and Comparison of Hormone-Binding and Transactivation Properties of Retinoic Acid and Retinoid X Receptors Expressed in Mammalian Cells and Yeast”, 268 J. Biol. Chem., 22625 (1993), the disclosures of which are herein incorporated by reference.
# Non-specific binding was defined as that binding remaining in the presence of 500 nM of the appropriate unlabelled compound. At the end of the incubation period, bound ligand was separated from free. The amount of bound tritiated retinoid was determined by liquid scintillation counting of an aliquot (700 μL) of the supernatant fluid or the hydroxylapatite pellet.
# After correcting for non-specific binding, IC50 values were determined. The IC50 value is defined as the concentration of competing ligand needed to reduce specific binding by 50%. The IC50 value was determined graphically from a log-logit plot of the data. The Ki values were determined by application of the Cheng-Prussof equation to the IC50 values, the labeled ligand concentration and the Kd of the labeled ligand.
# [2] = system: RXR:RAR heterodimer; assay: RXR:RAR heterodimer co-transfection assay (RARa Synergy CTF) in CV-1 cells; type: cell-based, human; details: for RARa Synergy CTF % Efficacy: agonist efficacy
# Source text: In the co-transfection assay, cloned cDNA for one or more IRs (e.g. human RARα, RXRα, or PPARγ), alone or in combination (i.e. for heterodimer assays) under the control of a constitutive promoter (e.g., the SV 40, RSV or CMV promoter) is introduced by transfection (a procedure to introduce exogenous genes into cells) into a background cell substantially devoid of endogenous IRs. These introduced gene(s) direct the recipient cells to make the IR protein(s) of interest. A further gene is also introduced (co-transfected) into the same cells in conjunction with the IR gene(s). This further gene, comprising the cDNA for a reporter protein, such as firefly luciferase (LUC), controlled by an appropriate hormone responsive promoter containing a hormone response element (HRE). This reporter plasmid functions as a reporter for the transcriptional-modulating activity of the target IR(s). Thus, the reporter acts as a surrogate for the products (mRNA then protein) normally expressed by a gene under control of the target receptor(s) and their native hormone(s).
# The RXR modulator compounds of the present invention were further tested for activity on RXR heterodimers with RARα utilizing the cotransfection assay in CV-1 cells as described in Example 12B. The RXR:RAR heterodimer cotransfection assays utilized the following expression plasmids and reporter plasmid: pRShRARα (10 ng/well, Giguere et al., 330 Nature, 624 (1987) the disclosure of which is herein incorporated by reference) or pRShRARγ (10 ng/well, Ishikawa et al., 4 Mol. Endocrin, 837 (1990) the disclosure of which is herein incorporated by reference) with Δ-MTV-LUC (50 ng/well, Hollenberg and Evans, 55 Cell, 899 (1988), the disclosure of which is herein incorporated by reference) containing an RARE which is referred to as two copies of the TRE-palindromic response element described in Umesono et al., 336 Nature, 262 (1988), the disclosure of which is herein incorporated by reference. To conduct a RXR:PPARγ heterodimer cotransfection assay, the RXRα receptor expression plasmid, pRShRXRα (10 ng/well), can be cotransfected with the PPARγ expression plasmid, pCMVhPPARγ (10 ng/well), and a reporter plasmid containing three copies of a PPARγ response element (pPREA3-tk-LUC, 50 ng/well; Mukherjee et al. 272 Journ. Biol. Chem., 8071-8076 (1997) and references cited therein, the disclosures of which are herein incorporated by reference).
# Cotransfections were performed as described in Example 12B. For determination of agonist activity in the context of the RXR:RAR heterodimer, media containing compounds of the present invention in concentrations ranging from 10^−10 to 10^−5 M were added to the cells. Similarly, the reference compounds all-trans retinoic acid (ATRA)(Sigma Chemical) and TTNPB ((E)-4-[2-(5,6,7,8-tetrahydro-5,5,8,8-tetramethyl-2-naphthalenyl)-1-propenyl]benzoic acid: Hoffman LaRoche, Inc.), known RAR agonist compounds were added at similar concentrations to provide a reference point for analysis of the agonist activity of the compounds of the present invention. Antagonist efficacy and IC50 values were determined as in Example 12B.
# RAR suppresses RXR ligand binding and transactivation of typical RXR agonists (e.g., LGD1069, LG100268) via allosteric interactions. Forman, B. M., Umesono, K., Chen, J., & Evans, R. M., Cell 81, 541-550 (1995) and Kurokawa, R., et. al. Nature 371, 528-531 (1994). However, when RAR is occupied, typical RXR agonists activate the heterodimer. Forman, B. M., Umesono, K, Chen, J., & Evans, R. M., Cell 81, 541-550 (1995) and Roy, B., Taneja, R., & Chambon, P., Mol. Cell. Biol. 15, 6481-6487 (1995). To examine the effects of the compounds of the present invention on the transcriptional properties of the RXR:RAR heterodimer, a heterodimer cotransfection assay as described above was employed.
SMILES,Ki [1] [µM],RARa Synergy CTF fold induction [2],RARa Synergy CTF % Efficacy [2] [%]
"C/C(=C/C(F)=C/C(C)=C/C(=O)O)c1cc(C(C)(C)C)cc(C(C)(C)C)c1OCC(F)F [Example 2, 7-[3,5-Di-tert-butyl-2-(2,2-difluoroethoxy)-phenyl]-5-fluoro-3-methyl-octa-2,4,6-trienoic acid]",2.75,9,112
"C/C(=C/C=C(F)/C(C)=C/C(=O)O)c1cc(C(C)(C)C)cc(C(C)(C)C)c1OCC(F)F [Example 1, 7-[3,5-di-tert-butyl-2-(2,2-difluoroethoxy)-phenyl]4-fluoro-3-methyl-octa-2,4,6-trienoic acid]",6.63,3,28
"CCOc1c(\C(=C/C=C/C(C)=C/C(=O)O)C(F)(F)F)cc(C(C)(C)C)cc1C(C)(C)C [Example 5, (2E,4E,6E)-3-methyl-7-(2-ethoxy-3,5-di-tert-butylphenyl)-8,8,8-trifluoroocta-2,4,6-trienoic acid]",7.25,,7
"CCCCOc1c(\C(C)=C/C=C/C(=C\C(=O)O)C(F)(F)F)cc(C(C)C)cc1C(C)C [Example 4, (2E,4E,6Z)-7-(2-Butoxy-3,5-diisopropylphenyl)-3-trifluoromethyl-octa-2,4,6-trienoic acid]",> 10,1,6
"CCCCOc1c(\C(C)=C/C=C/C(=C/C(=O)O)C(F)(F)F)cc(C(C)C)cc1C(C)C [Example 3, (2Z,4E,6Z)-7-(2-Butoxy-3,5-diisopropylphenyl)-3-trifluoromethyl-octa-2,4,6-trienoic acid]",> 10,1,6

# — patent US20040248919A1, “Fluorinated trienes and their use as rxr modulators” (priority 2001, published 2004)
